These results are taken from US10828301B2, “2,4-pyrimidinediamine compounds and their uses” (Rigel Pharmaceuticals, Inc, priority 2002, dated 2020).

Each structure is given as a SMILES string.

For assay [1], the system named is cultured human mast cells (CHMC). The assay can be described thus: CHMC low cell density ionomycin activation: tryptase assay. The conditions noted are these: Low Density CHMC, ionomycin activation, tryptase readout, read-out: CHMC Ionomycin Tryptase. Format: cell-based.
For assay [2] the test system is unchanged. The assay can be described thus: CHMC low cell density IgE activation: tryptase and LTC4 assays. The assay is classed as cell-based. The note with it: Low Density CHMC, anti-IgE activation, tryptase readout, read-out: CHMC anti-IgE Tryptase. The procedure, abridged:
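Cultured human mast cells at low density (1000-1500 per well) rested 1 h at 37° C, then stimulated with anti-IgE for 30 min at 37° C. Supernatant tryptase measured with fluorogenic substrate (30 min, room temperature); LTC4 quantified by ELISA on diluted supernatant.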

`CCOC(=O)C=Nc1cccc(Nc2ncc(F)c(Nc3ccc4c(c3)OCCO4)n2)c1` [Compound R950186, N4-(3,4-Ethylenedioxyphenyl)-N2-(3-ethoxycarbonylmethyleneaminophenyl)-5-fluoro-2,4-pyrimidinediamine]: the IC50 is greater than 10 µM in assay [1] (Homo sapiens, Mast cell) and 0.558 µM in assay [2] (Homo sapiens, Mast cell).

As to `Oc1ccc(-c2cnc(Nc3ccc4c(c3)OCCO4)nc2Nc2ccc3c(c2)OCCO3)cc1` [Compound R925816, N2,N4-Bis(3,4-ethylenedioxyphenyl)-5-(4-hydroxyphenyl)-2,4-pyrimidinediamine], the IC50 in assay [1] (Homo sapiens, Mast cell) is greater than 10 µM; in assay [2] (Homo sapiens, Mast cell), 6 µM.

With `CCOC(=O)c1cc2cccc(Nc3cc(Nc4cccc(O)c4)c(F)cn3)c2[nH]1` [Compound R926814, N2-(2-Ethoxycarbonylindol-7-yl)-5-fluoro-N4-(3-hydroxyphenyl)-2,4-pyridinediamine], the IC50 in assay [1] (Homo sapiens, Mast cell) is greater than 10 µM; in assay [2] (Homo sapiens, Mast cell), 1.1 µM.

Take `Cc1cc(O)cc(N(c2ccc3c(c2)OCCO3)c2nc(N)ncc2F)c1` [Compound R926893, N4-(3,4-Ethylenedioxyphenyl)-5-fluoro-N4-(3-hydroxy-5-methylphenyl)-2,4-pyrimidinediamine]: the IC50 is greater than 10 µM in assay [1] (Homo sapiens, Mast cell) and 10 µM in assay [2] (Homo sapiens, Mast cell).

In the case of `Oc1cccc(Nc2ncc(F)c(Nc3ccc(Cl)cn3)n2)c1` [Compound R927020, N4-(5-Chloropyridin-2-yl)-5-fluoro-N2-(3-hydroxyphenyl)-2,4-pyrimidinediamine], the IC50 is greater than 10 µM in assay [1] (Homo sapiens, Mast cell) and 1.32 µM in assay [2] (Homo sapiens, Mast cell).

With `COc1cc(Nc2nc(Nc3cccc(O)c3)ncc2F)cc(OC)c1` [Compound R926802, N4-(3,5-Dimethoxyphenyl)-N2-(3-hydroxyphenyl)-5-fluoro-2,4-pyrimidinediamine], the IC50 in assay [1] (Homo sapiens, Mast cell) was greater than 10 µM; in assay [2] (Homo sapiens, Mast cell) it was 1.25 µM.

For `Fc1cnc(Nc2ccc3c(c2)OCCO3)nc1NCc1csc2ccc(Cl)cc12` [Compound R926721, N4-[(5-Chloro-1-benzothiophen-3-yl)methyl]-N2-(3,4-ethylenedioxyphenyl)-5-fluoro-2,4-pyrimidinediamine], the IC50 in assay [1] (Homo sapiens, Mast cell) was greater than 10 µM; in assay [2] (Homo sapiens, Mast cell), 4.44 µM.

For `COC(=O)C1Cc2cc(Nc3ncc(F)c(Nc4ccc(Cl)cc4)n3)ccc2O1` (racemic) [Compound R927024, (±)-N4-(4-Chlorophenyl)-N2-(2,3-dihydro-2-methoxycarbonylbenzofuran-5-yl)-5-fluoro-2,4-pyrimidinediamine], the IC50 came to 99 µM in assay [1] (Homo sapiens, Mast cell) and 0.326 µM in assay [2] (Homo sapiens, Mast cell).

For the compound `COc1ccc(Nc2ncc(F)c(Nc3ccc4c(c3)OCCO4)n2)c(OC)c1` [Compound R926789, N2-(2,4-Dimethoxyphenyl)-N4-(3,4-ethylenedioxyphenyl)-5-fluoro-2,4-pyrimidinediamine], the IC50 in assay [1] (Homo sapiens, Mast cell) is greater than 10 µM; in assay [2] (Homo sapiens, Mast cell), 2.31 µM.

On to `COC(=O)C1Cc2cc(Nc3ncc(F)c(Nc4ccc(Cl)c(Cl)c4)n3)ccc2O1` (racemic) [Compound R927031, (±)-N4-(3,4-Dichlorophenyl)-N2-(2,3-dihydro-2-methoxycarbonylbenzofuran-5-yl)-5-fluoro-2,4-pyrimidinediamine], for which the IC50 in assay [1] (Homo sapiens, Mast cell) came to 99 µM; in assay [2] (Homo sapiens, Mast cell) it was 0.215 µM.

For the compound `CNC(=O)COc1cccc(Nc2ncc(F)c(Nc3ccc(OCCO)nc3)n2)c1` [Compound R927023, 5-Fluoro-N4-[2-(2-hydroxyethyleneoxy)pyridin-5-yl]-N2-[3-(N-methylamino)carbonylmethyleneoxyphenyl]-2,4-pyrimidinediamine], the values for the IC50 in assay [1] and in assay [2] were greater than 10 µM and 0.918 µM, respectively.

Turning to `CCOC(=O)C(Nc1ncc(C#N)c(NC(C(=O)OCC)C(C)C)n1)C(C)C` (centres unmarked) [Compound R925814, N2,N4-Bis(1-ethoxycarbonyl-2-methylpropyl)-5-cyano-2,4-pyrimidinediamine], the IC50 in assay [1] (Homo sapiens, Mast cell) is greater than 10 µM; in assay [2] (Homo sapiens, Mast cell) it was greater than 10 µM.

As to `Clc1cc(Nc2ccc3c(c2)OCCO3)nc(Nc2ccc3c(c2)OCCO3)n1` [Compound R926245, N2,N4-Bis(3,4-ethylenedioxyphenyl)-6-chloro-2,4-pyrimidinediamine], the IC50 in assay [1] (Homo sapiens, Mast cell) was determined as 9.4 µM; in assay [2] (Homo sapiens, Mast cell), 3.1 µM.

Consider `Oc1cccc(Nc2nc(NCc3csc4ccccc34)ncc2F)c1` [Compound R945164, N2-(Benzothiophen-3-ylmethyl)-5-fluoro-N4-(3-hydroxyphenyl)-2,4-pyrimidinediamine], for which the IC50 in assay [1] (Homo sapiens, Mast cell) was greater than 10 µM; in assay [2] (Homo sapiens, Mast cell), 10 µM.

In the case of `Fc1cnc(Nc2ccc3c(c2)OCCO3)nc1Nc1ccc(N2CCN(Cc3ccccc3)CC2)cc1` [Compound R945155, N4-[4-(N-Benzylpiperazino)phenyl]-N2-(3,4-ethylenedioxyphenyl)-5-fluoro-2,4-pyrimidinediamine], the IC50 was greater than 10 µM in assay [1] (Homo sapiens, Mast cell) and 1.88 µM in assay [2] (Homo sapiens, Mast cell).

With `OCCOc1ccc(Nc2ncc(F)c(Nc3ccc4oc(CO)cc4c3)n2)cc1` [Compound R935174, 5-Fluoro-N2-[4-(2-hydroxyethoxy)phenyl]-N4-(2-hydroxymethylbenzofur-5-yl)-2,4-pyrimidinediamine], the IC50 in assay [1] (Homo sapiens, Mast cell) was greater than 10 µM; in assay [2] (Homo sapiens, Mast cell), 1.38 µM.

Consider `Fc1cnc(Nc2ccc(SC(F)(F)F)cc2)nc1Nc1ccc2c(c1)OCCO2` [Compound R926899, N4-(3,4-Ethylenedioxyphenyl)-5-fluoro-N2-(4-trifluoromethylthiophenyl)-2,4-pyrimidinediamine], for which the IC50 in assay [1] (Homo sapiens, Mast cell) was greater than 10 µM; in assay [2] (Homo sapiens, Mast cell), 1.1 µM.

Take `Oc1cccc(Nc2cc(-c3ccccc3)nc(Nc3cccc(O)c3)n2)c1` [Compound R925812, N2,N4-Bis(3-hydroxyphenyl)-6-phenyl-2,4-pyrimidinediamine]: the IC50 was greater than 10 µM in assay [1] (Homo sapiens, Mast cell) and 5.8 µM in assay [2] (Homo sapiens, Mast cell).

Turning to `CNC(=O)c1cc2cc(Nc3nc(Nc4ccc5c(c4)OCCO5)ncc3F)ccc2o1` [Compound R926491, N2-(3,4-Ethylenedioxyphenyl)-5-fluoro-N4-[2-(N-methylamino)carbonylbenzofuran-5-yl]-2,4-pyrimidinediamine], the IC50 was greater than 10 µM in assay [1] (Homo sapiens, Mast cell) and 1.16 µM in assay [2] (Homo sapiens, Mast cell).

Take `CCOC(=O)c1cc2cccc(Nc3ncc(F)c(Nc4cc(OC)cc(OC)c4)n3)c2[nH]1` [Compound R926803, N4-(3,5-Dimethoxyphenyl)-N2-(2-ethoxycarbonylindol-7-yl)-5-fluoro-2,4-pyrimidinediamine]: the IC50 in assay [1] (Homo sapiens, Mast cell) was greater than 10 µM; in assay [2] (Homo sapiens, Mast cell), 1.54 µM.

On to `CCOC(=O)CNc1nc(NCC(=O)OCC)c([N+](=O)[O-])c(C(=O)OCC)n1` [Compound R925864, N2,N4-Bis(ethoxycarbonylmethyl)-6-ethoxycarbonyl-5-nitro-2,4-pyrimidinediamine], for which the IC50 in assay [1] (Homo sapiens, Mast cell) was greater than 10 µM; in assay [2] (Homo sapiens, Mast cell) it was greater than 10 µM.

For the compound `COc1ccc(Nc2ncc(F)c(Nc3ccc4c(c3)OCCO4)n2)c(C)c1` [Compound R926845, N4-(3,4-Ethylenedioxyphenyl)-5-fluoro-N2-(4-methoxy-2-methylphenyl)-2,4-pyrimidinediamine], the IC50 was determined as 7.81 µM in assay [1] (Homo sapiens, Mast cell) and 2.56 µM in assay [2] (Homo sapiens, Mast cell).

Turning to `CN(C)C(=O)C=Nc1cccc(Nc2ncc(F)c(Nc3cccc(O)c3)n2)c1` [Compound R950220, N2-[3-(N,N-Dimethylamino)carbonylmethyleneaminophenyl]-5-fluoro-N4-(3-hydroxyphenyl)-2,4-pyrimidinediamine], the IC50 in assay [1] (Homo sapiens, Mast cell) was greater than 10 µM; in assay [2] (Homo sapiens, Mast cell) it was 0.489 µM.

For the compound `CC(=O)Nc1cccc(OCCCNc2ncc(F)c(Nc3ccc4c(c3)OCCO4)n2)c1` [Compound R926787, N2-[3-(3-Acetamidophenoxy)propyl]-N4-(3,4-ethylenedioxyphenyl)-5-fluoro-2,4-pyrimidinediamine], the IC50 in assay [1] (Homo sapiens, Mast cell) was greater than 10 µM; in assay [2] (Homo sapiens, Mast cell) it was 5.42 µM.

Turning to `CN1C=COc2cc(Nc3nc(Nc4cccc(O)c4)ncc3F)ccc21` [Compound R908707, 5-Fluoro-N2-(3-hydroxyphenyl)-N4-(N-methyl-1,4-benzoxazin-7-yl)-2,4-pyrimidinediamine], the IC50 in assay [1] (Homo sapiens, Mast cell) was greater than 10 µM; in assay [2] (Homo sapiens, Mast cell) it was 1.83 µM.

As for `COC(=O)c1cc2cc(Nc3ncc(F)c(Nc4ccc(Cl)cc4)n3)ccc2o1` [Compound R927026, N4-(4-Chlorophenyl)-5-fluoro-N2-(2-methoxycarbonylbenzofuran-5-yl)-2,4-pyrimidinediamine], the IC50 is greater than 10 µM in assay [1] (Homo sapiens, Mast cell) and greater than 10 µM in assay [2] (Homo sapiens, Mast cell).

As to `CC(C)Oc1ccc(Nc2ncc(F)c(Nc3cccc(N)c3)n2)cc1` [Compound R950165, N4-(3-Aminophenyl)-5-fluoro-N2-(4-isopropoxyphenyl)-2,4-pyrimidinediamine], the IC50 in assay [1] (Homo sapiens, Mast cell) is greater than 10 µM; in assay [2] (Homo sapiens, Mast cell), 1.29 µM.

Take `CCOC(=O)C=Nc1cccc(Nc2ncc(F)c(Nc3cccc(N=CC(=O)OCC)c3)n2)c1` [Compound R950184, N2,N4-Bis(3-ethoxycarbonylmethyleneaminophenyl)-5-fluoro-2,4-pyrimidinediamine]: the IC50 is greater than 10 µM in assay [1] (Homo sapiens, Mast cell) and 2.22 µM in assay [2] (Homo sapiens, Mast cell).

Turning to `C=CCNc1ncc(Br)c(Nc2cccc(O)c2)n1` [Compound R925822, N2-Allyl-5-bromo-N4-(3-hydroxyphenyl)-2,4-pyrimidinediamine], the IC50 is greater than 10 µM in assay [1] (Homo sapiens, Mast cell) and greater than 10 µM in assay [2] (Homo sapiens, Mast cell).

For `OCC(O)COc1ccc(Nc2ncc(F)c(Nc3cccc(O)c3)n2)cc1` (centres unmarked) [Compound R935180, N2-[4-(2,3-Dihydroxypropoxy)phenyl]-5-fluoro-N4-(3-hydroxyphenyl)-2,4-pyrimidinediamine], the IC50 in assay [1] (Homo sapiens, Mast cell) is greater than 10 µM; in assay [2] (Homo sapiens, Mast cell) it was 1.22 µM.

Consider `CCCCCCOc1ccc(Nc2ncc(F)c(Nc3ccc4c(c3)OCCO4)n2)cc1` [Compound R920664, N4-(3,4-Ethylenedioxyphenyl)-5-fluoro-N2-(4-n-hexyloxyphenyl)-2,4-pyrimidindiamine], for which the IC50 in assay [1] (Homo sapiens, Mast cell) was greater than 10 µM; in assay [2] (Homo sapiens, Mast cell) it was greater than 10 µM.
